{
  "source": "patent US20260265360A1",
  "about": "“USE OF ANTI-FAM19A5 ANTAGONISTS FOR TREATING HEARING DISORDERS” (NEURACLE SCIENCE CO., LTD., priority 2023, published 2026)",
  "key": {"[1]": {"test_system": "inner hair cells of mouse cochlear explant", "test": "Reversal of FAM19A5-induced inhibition of synaptogenesis (CtBP2 puncta)", "type": "cell-based", "details": "FAM19A5 protein 1 μM alone, treated 1 DIV, stained 2 DIV", "experimental": "Cochlear explant were cultured in medium consisting of plating media, which consist of Neurobasal media (Invitrogen), 1% N2 supplement, and 10 μg/mL Ampicillin with culture media with additional 1% FBS.\nPostnatal day 4-5 (P4-5) C57BL/6 mice were sacrificed for inner ear dissection. Mouse head was bisected, and brain tissue was removed. Cochlea was carefully separated the from the extraneous bones in ice-cold HBSS (5 mM HEPES/1.3 mM CaCl2), 0.9 mM MgCl2, pH 7.4) or External solution (1.2 mM CaCl2), 1 mM MgCl2, 5 mM HEPES in HBSS). Then the stria vascularis and spiral bone plate was removed, and cochlea was cut into two to three sections. […]\nMouse cochlear explant cultures were treated with FAM19A5, FAM19A5 combined with a FAM19A5 antagonist (e.g., described herein, e.g., 1-30 antibody), or a FAM19A5 antagonist (e.g., described herein, e.g., 1-30 antibody) alone at 1 DIV to determine the level of synaptogenesis at 2 DIV by immunostaining CtBP2, a ribbon synapse marker. To quantify the number of CtBP2 puncta of individual inner hair cells, z-stack confocal images were exported in “multi-page” and the number of CtBP2 puncta from each individual inner hair cells were measured using ROI manger and multi-point tool from Fiji (Image J). Number of CtBP2 puncta from five individual inner hair cells were counted per image and 3 z-stack images were measured from each treatment group. […]"}, "[2]": {"test_system": "mouse primary spiral ganglion neurons", "test": "Reversal of FAM19A5-induced inhibition of neurite outgrowth", "type": "cell-based", "details": "FAM19A5 protein 10 μM alone, treated 0 DIV, NF200 staining at 3 DIV", "experimental": "Sprial ganglion neuron were cultured in culture media consisting of high-glucose (4.5 mg/mL) DMEM, 0.1 mg/ml penicillin, 0.1 mg/mL streptomycin, N2 supplement, and 10 µg/mL insulin and was designated here as “5K” because in this media, [K+]=5.4 mM. A depolarizing media, designated as “30K,” in which Na was replaced with equimolar K to raise [K] to 30 mM while maintaining osmolarity was also used.\nDissociated spiral ganglion cell cultures were prepared from postnatal day 4-5 (P4-5) cochleae and maintained using a procedure modified from the methods described by Bok et al., J Neurosci 23 (3): 777-87 (2003), which is incorporated herein by reference in its entirety. […]\nNeurite outgrowth was quantified by measuring the total length of neurites per neuron. Neurons were stained with NF200 at either 2 or 3 DIV, and neurite lengths were measured using the Fiji (Image J). Individual neurons were manually selected, and neurite lengths were determined using the Simple Neurite Tracer plugin.\nBriefly, mouse primary spiral ganglion neurons (cultured and processed as described in Example 11) were treated with a FAM19A5 protein (10 μM) alone or in combination with an anti-FAM19A5 antibody (1-30) (100 nM) at 0 DIV (day in vitro). […] Then, at 3 DIV, the neurons were stained for neurofilament protein (NF200) expression and the average neurite length quantified."}},
  "data": [
    {"substance": "FAM19A5 protein: FAM19A5 protein added to neuron and cochlear explant cultures to inhibit neurite outgrowth and synaptogenesis", "values": [
      {"measurement": "number of CtBP2 puncta in inner hair cells vs control group", "setting": "[1]", "result": "significantly decreased"},
      {"measurement": "total neurite length vs non-treated cells", "setting": "[2]", "result": "significantly reduced"}
    ]}
  ]
}
